The values that follow come from patent publication EP4360643A1, “SOCS1 DERIVED PEPTIDES FOR USE IN THE TREATMENT OF LIVER DISEASES” (Fundacion Instituto De Investigacion Sanitaria Fundacion …, priority 2022, dated 2024).

Bridges are numbered along the chain shown (N, C = ends). Where no end group is shown, it is not given here. [ ]: non-standard residue; d: D form. The star is where a group is joined. 1Nal = N[C@@H](Cc1cccc2ccccc12)C(=O)O; Acm = CC(=O)NC*

One assay has as its system BKS db/db mice. The assay can be described thus: T2D-induced liver damage in BKS db/db mice (leptin receptor deficiency). Type of assay: in vivo. To be noted: Losartan alone, 25 µg/g in drinking water, 7 weeks. How it is done: Leptin receptor deficiency in diabetes-susceptible strain BKS db/db: Homozygous C57BLKS (BKS) inbred db/db mice (16-weeks old males; Envigo) were randomized to receive in drinking water an angiotensin receptor blocker (Losartan 25 µg/g body weight) or vehicle as tap water (n=25). In addition, two groups of 8 losartan-treated mice were randomized to receive S1 peptide (10 µg/g body weight) or JAK1/2 inhibitor (Baricitinib 3 µg/g body weight) via intraperitoneal injection 3 days per week for 7 weeks. All groups were monitored during 7 weeks of treatment. Heterozygous littermates (db/m; n=10) were used as non-diabetic, non-obese control group.
Mice were housed in ventilated cages (2-4 mice per cage) with usual bedding material and environmental enrichment in a conventional temperature-controlled room (20-22°C) with 12 h light/dark cycle and free access to water and food. Blood glucose (glucometer; NovaPro, Menarini Diagnostics) and body weight levels were monitored once weekly during the follow-up period. […]
At the end of the studies, serum levels of glucose, triglycerides (TG), total cholesterol, high-density lipoprotein cholesterol (HDL), low-density lipoprotein cholesterol (LDL), alanine aminotransferase (ALT or GPT), aspartate aminotransferase (AST), alkaline phosphatase (ALP) and albumin were determined by automated procedures (Roche Cobas autoanalyzer). […]

For assay [1], the system named is ApoE-/- mice fed with HFD. The assay can be described thus: NAFLD induced by high-fat diet (HFD) in ApoE-/- mice. The assay is classed as in vivo. To be noted: 8 weeks of treatment. How it is done: In the second model, apolipoprotein E deficient mice (ApoE-/-, males, 10-12 weeks old) were administered high-fat diet (HFD, TD.88137, Envigo) for 8 weeks and treated with vehicle (n=8) or SOCS1-derived peptides (S1, n=6; liPS5, n=6; cPS5, n=6; cPS5Nal, n=6) at the dose of 4µg/g (in 200 µL) via intraperitoneal injection 3 days per week. A group of ApoE-/- mice under standard diet (Chow, n=6) was included as control.
Mice were housed in ventilated cages (2-4 mice per cage) with usual bedding material and environmental enrichment in a conventional temperature-controlled room (20-22°C) with 12 h light/dark cycle and free access to water and food. Blood glucose (glucometer; NovaPro, Menarini Diagnostics) and body weight levels were monitored once weekly during the follow-up period. At the end of the intervention studies, mice were anaesthetized (ketamine 100 mg/kg and xylazine 10 mg/kg) and euthanized, and blood and tissue samples were collected.
Hepatic lipids were extracted as previously described. Commercial colorimetric kits were used to measure concentrations of total cholesterol (STA-384, Cell Biolabs) and TG (11528, Biosystems), and values were normalized by tissue weight and mg of protein (BCA assay), respectively.
At the time of harvest, liver samples were fixed in 10% buffered formalin, processed for paraffin-embedding and cut (3-4 µm) or embedded in OCT compound and cryosectioned into 7 µm slices. Deparaffinized sections were stained with hematoxylin/eosin and Masson's trichrome to evaluate the histological NAFLD activity score (NAS) considering steatosis, lobular inflammation, ballooning and fibrosis, as previously described or were stained with picrosirious red to assess collagen deposition and fibrotic areas. Periodic Acid Schiff staining was performed for glycogen deposition assessment. Cryosections were stained with Oil red O/ hematoxylin to detect lipid accumulation.
For immunohistochemistry, liver sections were deparaffinized and […] through graded xylene and ethanol. After antigen retrieval (0.01 M citrate buffer pH 6 for 20 min) and blockade of endogenous peroxidase (3% H2O2 in methanol for 30 min) and nonspecific binding (8% host serum for 30 min), slides were incubated overnight at 4°C with primary antibodies against phosphorylated STAT1 (P-STAT1, Tyr701; Thermo Fisher Scientific Cat# 44-376G, RRID:AB_2533642), P-STAT3 (Ser727, Cell Signalling Technology Cat# 9134, RRID:AB_331589), P-nuclear factor erythroid 2-related factor 2 (NRF2, Ser40; Abcam Cat# ab76026, RRID:AB_1524049) and F4/80 monocytes/macrophages (Bio-Rad Cat# MCA497R, RRID:AB_323279). After rinsing in PBS, samples were incubated with respective secondary antibodies conjugated with either horseradish peroxidase or biotin (followed by avidin-biotin complex reagent). Immunoreactive cells were then visualized by the addition of peroxidase substrates (3, 3-diaminobenzidine or 3-amino-9-ethylcarbazole; DAKO) and counterstained with hematoxylin.
All the histological evaluations were conducted in a blinded fashion. Positive staining was quantified in at least 2 sections per mice using Image-Pro Plus software (Media Cybernetics) and expressed as percentage or number of positive cells per area.
(§1) Total RNA from mouse liver and hepatocytes was extracted using TRI Reagent (Molecular Research Center). Complementary DNA was produced via reverse transcription using High Capacity cDNA Reverse Transcription Kit (Applied Biosystems). The gene expression of mouse genes was determined in duplicate by quantitative real-time PCR using predesigned TaqMan gene expression assays (Applied Biosystems) or Premix ExTaq (Takara). The results for each sample were normalized to the 18S rRNA housekeeping expression, and data expressed as fold increases versus chow diet (in vivo studies) or basal conditions (in vitro studies).

In assay [2] the test system is mouse hepatocyte cell line. Description: In vitro NAFLD model: hepatocytes exposed to palmitic acid (Oil red O staining, real-time PCR). Type of assay: cell-based. To be noted: induced by palmitic acid 400 µM, 6 hours. How it is done:
Immortalized mouse hepatocyte cell line (kindly provided by Dr. Valverde, IIBm Alberto Sols, Madrid) were cultured in Dulbecco's Modified Eagle Medium (DMEM; D6546, Sigma-Aldrich) containing 10% FBS, 100 U/mL penicillin, 100 µg/mL streptomycin and 2 mM L-glutamine (Sigma-Aldrich) and used between 2nd-8th passages. Cells were incubated for 24 hours in medium with 0.5% FBS, pre-treated for 90 min with optimal doses of peptides (59 µM S1 and 25 µM liPS5) and then stimulated for additional 2-16 h with palmitic acid (P-0500, Sigma-Aldrich; stock solution diluted in fatty acid-free BSA to 5 mM) at a final concentration of 400 µM. Cell viability was confirmed by the 3-(4,5-dimethylthiazol-2-yl)-2,5-diphenyltetrazolium bromide tetrazolium (MTT) assay. Lipid accumulation in hepatocytes was determined by Oil red O staining.
as §1
For orientation: In qPCR the cycle at which signal appears reflects the starting amount.

Setting [3] is: 4µg/g intraperitoneal 3 days per week, vs vehicle.

On to `CCCCc1nc(Cl)c(CO)n1Cc1ccc(-c2ccccc2-c2nn[nH]n2)cc1` [Losartan], for which, in the assay with BKS db/db mice, the hepatoprotective effect entry is given as “did not produce an hepatoprotective effect”.

“DTC(Acm)RQT(Nal1)RKH (lactam bridge D1-K9) (DTC(Acm)RQT[1Nal]RKH; lactam 1-9) [cPS5Nal, cyclic PS5 with additional non-natural residue 1-naphthylalanine]”: in assay [1], the “gene expression of CCL5 in mouse liver” value is “effectively prevented”, the “gene expression of CCl2 in mouse liver” value is listed as “effectively prevented”, the “gene expression of CXCL10 in mouse liver” value is recorded as “effectively prevented” and the “gene expression of IL-6 in mouse liver” value is reported as “effectively prevented”. Also, in assay [1], the “gene expression of TNFα in mouse liver” value is recorded as “effectively prevented” and the “gene expression of scavenger receptor CD36 in mouse liver” value is “effectively prevented”. Also, in assay [1] (setting [3]), the “ballooning (liver sections)” value is on record as “marked decrease”; the “hepatic steatosis (liver sections, hematoxylin/eosin, Oil red O)” value is “marked decrease”; the “inflammation (liver sections, F4/80)” value is recorded as “marked decrease”. Besides, in assay [2], the “expression of inflammatory gene CCL2 (real-time PCR)” value is on record as “downregulated”, the “expression of inflammatory gene IL-6 (real-time PCR)” value is listed as “downregulated” and the “expression of scavenger receptor CD36 (real-time PCR)” value is recorded as “downregulated”.
